Where two headings read alike, the source gives them in different places.
Test system: patients with probable MSA
Format: in vivo, human
Details: average of five patients, oral 200 mg daily
Description: Five patients fulfilled the consensus criteria for “probable MSA” and received oral Nilotinib 200 mg daily for 24 weeks. Disease progression was monitored every 4 weeks by measuring the patient's motor and non-motor symptoms with the Unified Multiple System Atrophy Rating Scale (UMSARS). Mini Mental State Examination (MMSE) was used to screen for cognitive impairment. […] However, these AEs resolved with continued administration of the drug. […] Furthermore, there was a significant decline of 6.8 and 2.2 points in the UMSARS and UMSARS-II, respectively, compared to baseline (see FIG. 2). MMSE results were normal throughout treatment.

Cc1cn(-c2cc(NC(=O)c3ccc(C)c(Nc4nccc(-c5cccnc5)n4)c3)cc(C(F)(F)F)c2)cn1 [Nilotinib]
UMSARS, Average (Week 4): 52.6 points | UMSARS-II, Average (Week 4): 22.2 points | UMSARS, Average (Week 8): 52.4 points | UMSARS-II, Average (Week 8): 22.2 points | UMSARS, Average (Week 12): 50.8 points | UMSARS-II, Average (Week 12): 22 points | UMSARS, Average (Week 16): 49.4 points | UMSARS-II, Average (Week 16): 21.6 points | UMSARS, Average (Week 20): 47.8 points | UMSARS-II, Average (Week 20): 21.2 points | UMSARS, Average (Week 24): 46.6 points | UMSARS-II, Average (Week 24): 20.6 points

— patent US20190038624A1 (priority 2017, published 2019)
